Experimental data: DBAASP
≈ marks a conversion by molar mass, not a printed value. Blank lines part the entries; values can stand above or below the compound they belong to.

Columns and labels:
Test in all cases: ≥ marks a high value that may be exact or a test limit, other limits are often not marked, values filed in µg/mL are converted to µM
[1] = test system: Pseudomonas aeruginosa ATCC 9027
[2] = test system: Staphylococcus aureus ATCC 6538
[3] = test system: Bacillus subtilis KCTC 3068
[4] = test system: Escherichia coli KCTC 1682
[5] = test system: Pseudomonas aeruginosa KCTC 1637
[6] = test system: Salmonella typhimurium KCTC 1926
[7] = test system: Staphylococcus aureus KCTC 1621
[8] = test system: Staphylococcus epidermidis KCTC 1917
[9] = test system: Candida albicans ATCC 90028
[10] = test system: Escherichia coli ATCC 25922
[11] = test system: Pseudomonas aeruginosa ATCC 27853
[12] = test system: Staphylococcus aureus ATCC 29213
[13] = test system: Candida albicans
[14] = test system: Acinetobacter baumannii
[15] = test system: Klebsiella pneumoniae ATCC 700603
[16] = test system: Staphylococcus aureus ATCC 25923
[17] = test system: Enterococcus faecalis ATCC 29212
[18] = test system: Escherichia coli
[19] = test system: Staphylococcus aureus

SMILES: CC(C)C[C@H](NC(=O)[C@H](CC(C)C)NC(=O)[C@H](CCCCN)NC(=O)[C@H](CCCCN)NC(=O)[C@H](C)NC(=O)[C@H](CC(C)C)NC(=O)[C@H](CCCCN)NC(=O)[C@H](C)NC(=O)[C@@H](N)Cc1ccccc1)C(N)=O [FAKLAKKLL]
- MIC [1]: 97 µM (≈ 99.9 µg/mL)
- MIC [2]: 194 µM (≈ 200 µg/mL)

SMILES: CC(C)C[C@H](NC(=O)[C@H](C)NC(=O)[C@H](Cc1ccccc1)NC(=O)[C@H](CCCCN)NC(=O)[C@H](CCCCN)NC(=O)[C@H](CC(C)C)NC(=O)[C@H](C)NC(=O)[C@H](CCCCN)NC(=O)[C@H](C)NC(=O)[C@H](CC(C)C)NC(=O)[C@H](CC(C)C)NC(=O)[C@H](CCCCN)NC(=O)[C@H](C)NC(=O)[C@@H](N)Cc1ccccc1)C(N)=O [FAKLLAKALKKFAL]
- MIC [1]: 16 µM (≈ 25 µg/mL)
- MIC [2]: 32 µM (≈ 50 µg/mL)

SMILES: CC(C)C[C@H](NC(=O)[C@H](CCCCN)NC(=O)[C@H](CC(C)C)NC(=O)[C@H](CCCCN)NC(=O)[C@H](C)NC(=O)[C@H](CC(C)C)NC(=O)[C@H](CCCCN)NC(=O)[C@H](C)NC(=O)[C@H](CC(C)C)NC(=O)[C@H](CC(C)C)NC(=O)[C@H](CCCCN)NC(=O)[C@H](C)NC(=O)[C@@H](N)Cc1ccccc1)C(N)=O [FAKLLAKLAKLKL]
- MIC [1]: 34.3 µM (≈ 50 µg/mL)
- MIC [2]: 3.43 µM (≈ 5 µg/mL)

SMILES: CC[C@H](C)[C@H](N)C(=O)N[C@@H](CC(C)C)C(=O)NCC(=O)N[C@@H](CCCCN)C(=O)N[C@H](C(=O)N[C@@H](C)C(=O)N[C@@H](CCC(=O)O)C(=O)NCC(=O)N[C@H](C(=O)N[C@@H](CCCCN)C(=O)N[C@@H](CO)C(=O)N[C@@H](CC(C)C)C(=O)N[C@@H](Cc1ccccc1)C(N)=O)[C@@H](C)CC)[C@@H](C)CC [ILGKIAEGIKSLF]
- MIC [4]: ≥ 64 µM
- MIC [5]: ≥ 32 µM
- MIC [6]: ≥ 64 µM
- MIC [7]: ≥ 64 µM
- MIC [8]: ≥ 64 µM

SMILES: CC[C@H](C)[C@H](N)C(=O)N[C@@H](CC(C)C)C(=O)N[C@@H](CCCCN)C(=O)N[C@@H](Cc1c[nH]c2ccccc12)C(=O)N[C@@H](CCCCN)C(=O)N[C@@H](Cc1c[nH]c2ccccc12)C(=O)N[C@@H](CCCCN)C(=O)N[C@@H](Cc1c[nH]c2ccccc12)C(=O)N[C@@H](Cc1c[nH]c2ccccc12)C(=O)N[C@@H](CCCCN)C(=O)N[C@@H](Cc1c[nH]c2ccccc12)C(=O)N[C@@H](CCCN=C(N)N)C(=O)N[C@@H](CCCN=C(N)N)C(N)=O [ILKWKWKWWKWRR]
- MIC [3]: 2.5 µM (≈ 5 µg/mL)
- MIC [4]: 5 µM (≈ 10 µg/mL)
- MIC [5]: 5 µM (≈ 10 µg/mL)
- MIC [6]: 2.5 µM (≈ 5 µg/mL)
- MIC [7]: 2.5 µM (≈ 5 µg/mL)
- MIC [8]: 5 µM (≈ 10 µg/mL)

SMILES: CC[C@H](C)[C@H](NC(=O)[C@@H](NC(=O)[C@@H](NC(=O)[C@H](CCCN=C(N)N)NC(=O)[C@@H](NC(=O)[C@@H](NC(=O)[C@H](CC(C)C)NC(=O)[C@@H]1CCCN1C(=O)[C@H](Cc1c[nH]c2ccccc12)NC(=O)[C@@H](NC(=O)[C@H](CCCN=C(N)N)NC(=O)[C@@H](N)CCCCN)C(C)C)C(C)C)[C@@H](C)CC)[C@@H](C)O)C(C)C)C(=O)N[C@@H](C)C(=O)NCC(=O)N[C@@H](Cc1ccc(O)cc1)C(=O)N[C@@H](CC(N)=O)C(=O)N[C@@H](CC(C)C)C(=O)N[C@@H](Cc1ccc(O)cc1)C(=O)N[C@@H](CCCN=C(N)N)C(=O)O [KRVWPLVIRTVIAGYNLYR]
- MIC [6]: ≥ 32 µM

SMILES: CC(=O)N[C@@H](CCCCN)C(=O)N[C@@H](Cc1ccc(O)cc1)C(=O)N[C@H](C(=O)NCC(=O)N[C@@H](CCCCN)C(=O)N[C@@H](CS)C(=O)N[C@@H](CCCCN)C(=O)N[C@H](C(=O)N[C@@H](CCCCN)C(=O)N[C@@H](CCCCN)C(=O)N[C@@H](CC(N)=O)C(=O)N[C@@H](CCCCN)C(=O)N[C@@H](CS)C(=O)N[C@@H](CCCCN)C(N)=O)[C@@H](C)O)[C@@H](C)O [KYTGKCKTKKNKCK]
- MIC [13]: 1.3 µM (≈ 2.21 µg/mL)

SMILES: CC(C)C[C@H](NC(=O)[C@H](CC(C)C)NC(=O)[C@H](CCCN=C(N)N)NC(=O)[C@H](CCCCN)NC(=O)[C@H](CCCN=C(N)N)NC(=O)[C@H](CC(C)C)NC(=O)[C@H](CCCCN)NC(=O)[C@H](CCCN=C(N)N)NC(=O)[C@H](CC(C)C)NC(=O)[C@H](Cc1cnc[nH]1)NC(=O)[C@H](CO)NC(=O)[C@H](C)NC(=O)[C@H](CC(C)C)NC(=O)[C@H](CCCN=C(N)N)NC(=O)[C@@H](NC(=O)[C@H](CC(C)C)NC(=O)[C@H](CCCN=C(N)N)NC(=O)[C@H](CCCCN)NC(=O)[C@H](CCCN=C(N)N)NC(=O)[C@H](CC(C)C)NC(=O)[C@H](CCCCN)NC(=O)[C@H](CCCN=C(N)N)NC(=O)[C@@H](N)CC(C)C)C(C)C)C(=O)O [LRKLRKRLVRLASHLRKLRKRLL]
- MIC [14]: 2.05 µM (≈ 6 µg/mL)
- MIC [17]: > 10.9 µM
- MIC [10]: 2.05 µM (≈ 6 µg/mL)
- MIC [11]: 2.74 µM (≈ 8 µg/mL)
- MIC [12]: 5.47 µM (≈ 16 µg/mL)

SMILES: CC[C@H](C)[C@H](NC(=O)[C@H](CCCCN)NC(=O)[C@H](CS)NC(=O)[C@H](C)NC(=O)[C@@H](NC(=O)[C@H](Cc1ccccc1)NC(=O)[C@H](CCCCN)NC(=O)[C@H](CC(C)C)NC(=O)[C@H](CCCCN)NC(=O)[C@@H](NC(=O)[C@H](CCCCN)NC(=O)[C@H](CCCCN)NC(=O)[C@H](CC(C)C)NC(=O)[C@H](CC(N)=O)NC(=O)[C@H](CCCCN)NC(=O)[C@H](CC(C)C)NC(=O)[C@@H](NC(=O)[C@H](CO)NC(=O)[C@H](CC(C)C)NC(=O)[C@H](CCSC)NC(=O)[C@@H](N)CO)C(C)C)C(C)C)C(C)C)C(=O)N[C@@H](CC(N)=O)C(=O)N[C@@H](CCCCN)C(=O)N[C@@H](CCC(N)=O)C(=O)N[C@@H](CS)C(=O)O [SMLSVLKNLKKVKLKFVACKINKQC]
- MIC [13]: > 200 µM
- MIC [18]: 200 µM (≈ 573 µg/mL)
- MIC [19]: > 200 µM

The remaining lines, values ahead:

- MIC [1]: > 125 µM
- MIC [2]: 3.13 µM (≈ 5 µg/mL)
SMILES: CC(C)C[C@H](NC(=O)[C@H](C)NC(=O)[C@H](CCCCN)NC(=O)[C@H](CC(C)C)NC(=O)[C@H](C)NC(=O)[C@H](CCCCN)NC(=O)[C@H](CC(C)C)NC(=O)[C@H](CC(C)C)NC(=O)[C@H](C)NC(=O)[C@H](CCCCN)NC(=O)[C@H](CC(C)C)NC(=O)[C@H](C)NC(=O)[C@H](CCCCN)NC(=O)[C@H](C)NC(=O)[C@@H](N)Cc1ccccc1)C(N)=O [FAKALKALLKALKAL]

- MIC [3]: 8 µM (≈ 13 µg/mL)
- MIC [4]: 4 µM (≈ 6.48 µg/mL)
- MIC [5]: 16 µM (≈ 25.9 µg/mL)
- MIC [6]: 4 µM (≈ 6.48 µg/mL)
- MIC [7]: 16 µM (≈ 25.9 µg/mL)
- MIC [8]: 8 µM (≈ 13 µg/mL)
SMILES: CC(C)C[C@H](NC(=O)[C@H](C)NC(=O)[C@H](Cc1c[nH]c2ccccc12)NC(=O)[C@H](CCCCN)NC(=O)[C@H](CC(N)=O)NC(=O)[C@H](Cc1c[nH]c2ccccc12)NC(=O)[C@H](CCCCN)NC(=O)[C@H](CCCCN)NC(=O)[C@H](CCCN=C(N)N)NC(=O)[C@@H](N)Cc1ccccc1)C(=O)N[C@@H](CO)C(=O)N[C@@H](CCCN=C(N)N)C(N)=O [FRKKWNKWALSR]

- MIC [3]: 2 µM (≈ 4.88 µg/mL)
- MIC [4]: 4 µM (≈ 9.76 µg/mL)
- MIC [5]: 4 µM (≈ 9.76 µg/mL)
- MIC [6]: 2 µM (≈ 4.88 µg/mL)
- MIC [7]: 2 µM (≈ 4.88 µg/mL)
- MIC [8]: 4 µM (≈ 9.76 µg/mL)
SMILES: CC[C@H](C)[C@H](N)C(=O)NCC(=O)N[C@@H](CCCCN)C(=O)N[C@@H](CCCCN)C(=O)N[C@@H](Cc1ccccc1)C(=O)N[C@@H](CCCCN)C(=O)N[C@@H](CCCN=C(N)N)C(=O)N[C@H](C(=O)N[C@H](C(=O)N[C@@H](CCCCN)C(=O)N[C@@H](CCCN=C(N)N)C(=O)N[C@H](C(=O)N[C@@H](CCCCN)C(=O)N[C@@H](CCCCN)C(=O)N[C@@H](Cc1c[nH]c2ccccc12)C(=O)N[C@@H](CC(C)C)C(=O)N[C@@H](CCCN=C(N)N)C(=O)N[C@@H](CCCCN)C(=O)N[C@@H](CC(C)C)C(=O)O)[C@@H](C)CC)C(C)C)[C@@H](C)CC [IGKKFKRIVKRIKKWLRKL]

- MIC [9]: ≥ 40 µM
- MIC [10]: 40 µM (≈ 59.5 µg/mL)
- MIC [11]: 40 µM (≈ 59.5 µg/mL)
- MIC [12]: 40 µM (≈ 59.5 µg/mL)
SMILES: CC[C@H](C)[C@H](NC(=O)[C@H](CCCN=C(N)N)NC(=O)[C@H](CCC(N)=O)NC(=O)[C@@H](NC(=O)[C@@H](NC(=O)[C@H](CCCN=C(N)N)NC(=O)[C@@H](N)CCCCN)[C@@H](C)CC)C(C)C)C(=O)N[C@@H](CCCCN)C(=O)N[C@@H](CC(=O)O)C(=O)N[C@@H](Cc1ccccc1)C(=O)N[C@@H](CC(C)C)C(=O)N[C@@H](C)C(=O)O [KRIVQRIKDFLA]

- MIC [14]: ≥ 64 µM
- MIC [10]: 64 µM (≈ 118 µg/mL)
- MIC [15]: > 64 µM
- MIC [1]: > 64 µM
- MIC [16]: > 64 µM
SMILES: CC[C@H](C)[C@H](NC(=O)[C@H](CC(C)C)NC(=O)[C@H](CCCCN)NC(=O)[C@H](CCCN=C(N)N)NC(=O)[C@H](CC(N)=O)NC(=O)[C@H](CC(C)C)NC(=O)[C@H](CCCCN)NC(=O)[C@H](Cc1c[nH]c2ccccc12)NC(=O)[C@@H](NC(=O)[C@@H](NC(=O)[C@H](CO)NC(=O)[C@H](Cc1ccccc1)NC(=O)[C@@H](N)CC(C)C)[C@@H](C)CC)[C@@H](C)CC)C(=O)N[C@@H](CCCCN)C(=O)N[C@@H](C)C(=O)O [LFSIIWKLNRKLIKA]
